Experimental data published in PMC11054303, “Design and Synthesis of Novel N-Benzylidene Derivatives of 3-Amino-4-imino-3,5-dihydro-4H-chromeno[2,3-d]pyrimidine under Microwave, In Silico ADME Predictions, In Vitro Antitumoral Activities and In Vivo Toxicity” (Pharmaceuticals, 2024).

Legend:
[1] = tested on: zebrafish Danio rerio embryos; experiment: Angiogenesis of vessels in mCherry transgenic zebrafish embryos; format: in vivo; conditions: 1.67 μM, 72 hpf
Source text: Another interest of zebrafish Danio rerio is the possibility to deeply evaluate the effects of angiogenic compounds. In our model, the formation of most vessels is complete, the circulation is present, and the heart is beating after 28 hpf of development. Angiogenesis begins in the somites and in the anterior portion of the embryos. Many zebrafish blood vessels form by angiogenic sprouting and appear to require the same proteins required for blood vessel growth in mammals. By using the mCherry line transgenic zebrafish, it is possible to analyze the direct effect of a compound on the angiogenesis of dorsal vessels. Zebrafish embryos can survive up to a week without an intact circulatory system because defective vessel formation has no immediate lethal effect.
These experiments were performed in four technical replicates.

[2] = tested on: zebrafish Danio rerio embryos; conditions: transgenic line Tg(kdrl:Hsa.HRAS-mCherry)s896, zebrafish (Danio rerio), in vivo, 72 hpf, 1.67 μM
Protocol: (§5) Fertilized eggs at 24–48 h post-fertilization (hpf) were selected and transferred to a 96-well plate (1 embryo/well). […] DMSO (0.6%) was used as vehicle control for the test compounds. The exposure duration continued up to 72 hpf because it is the endpoint of embryonic development [41]. The dead embryos were eliminated, and the fertilized eggs were imaged at 0, 24, 48 and 72 hpf.
(§6) Eggs were collected 2 h post-fertilization (hpf) and kept in glass Petri dishes containing water for subsequent examination under a binocular microscope to confirm fertilization. […] Chemical treatments were performed by adding DMSO alone (negative control), or test molecule. These experiments were performed in four technical replicates.
(§7) The experiments were performed using a Zeiss inverted fluorescent microscope (Observer Z1). The zebrafish toxicological test (Zebratox) was realized as follows: the 24 h post-fertilization embryos were arrayed by hand with one embryo per well in black-walled 96-well microplates for fluorescence assays (Perkin Elmer, Waltham, MA, USA). The embryos were treated before hatching from 0 to 72 h post-fertilization. The 20 mM DMSO stock chemicals were diluted in fish water and added to the wells at final concentrations from 0.0 2µM to 5 μM. The negative control (0.25% DMSO) was added to each replicate plate. The experiments were realized in triplicate in three independent plates. […] The zebrafish fertilized eggs were provided by the ImPACcell-Biosit Zebrafish facilities (Rennes, France).

[3] = tested on: zebrafish Danio rerio embryos; experiment: Zebrafish embryo toxicity assay (Zebratox, FET); conditions: low doses
Protocol: as §5, §6, §7

T47D breast cancer cells = tested on: T47D breast cancer cells; design: method as in PMID 15542776; conditions: cited from earlier work
MCF7 = experiment: Antiproliferative assay, MCF7; format: cell-based, human; conditions: for IC50: Homo sapiens, MCF7, 48 h incubation, average of three assays, standard error ± 0.5 μM
Protocol: (§1) The potential antiproliferative activity of these novel 3-(N-phenylmethyliden)amino-4-imino-3,5-dihydro-4H-chromeno[2,3-d]pyrimidine 10(a-i) and 10-(N-phenylmethyliden)amino-11-imino-11H-naphto[1′,2′:5,6]pyrano[2,3-d]pyrimidine 10(j-l) was evaluated in a panel of eight tumoral cell lines and in diploid skin fibroblasts used as normal cell lines for control. For these antitumor assays, chosen cell lines represent diverse types of human cancer, which are, respectively, human hepatocellular carcinoma (Huh7 D12), human colon adenocarcinoma (Caco2), human breast adenocarcinoma (MDA-MB231), MDA-MB468 for human breast carcinoma which correspond to the Triple Negative Breast Cancer (TNBC), human colon carcinoma (HCT116), PC3 as cell line initiated from bone metastasis of grade IV prostatic adenocarcinoma from a person, MCF7 as breast cancer line isolated from a person and PANC1, as human pancreatic cancer cell line. The potential antiproliferative activity was preliminarily evaluated in vitro at a 25 μM single dose.
(§2) The IC50 was calculated from the full dose-response curve and used as a parameter for the antiproliferative activity of the new compounds.
(§3) Skin diploid fibroblastic cells were provided by BIOPREDIC International Company (Rennes, France). Huh-7D12 (Ref ECACC: 01042712), Caco2 (Ref ECACC: 86010202), MDA-MB-231 (Ref ECACC: 92020424), MDA-MB-468, HCT-116 (Ref ECACC: 91091005), PC3 (Ref ECACC: 90112714), and MCF7 cell lines were obtained from the ECACC collection. PANC1 cell lines, a generous gift of LBAI Inserm 1227 (Brest, France). Cells were grown according to ECACC recommendations in DMEM for Huh-D12, MDA-MB-231, MDA-MB-468 and fibroblast, in EMEM for Caco2, in McCoy’s for HCT-116 and RPMI for PC3 at 37 °C and 5% CO2. All culture media with 10% of FBS, 1% of penicillin-streptomycin and 2 mM glutamine.
(§4) Chemicals were solubilized in DMSO at a concentration of 10 mM (stock solution) and diluted in a culture medium to the desired final concentrations. […] The toxicity test of the chemicals on these cells was as follows: 2 × 10^3 cells for HCT-116 cells or 4 × 10^3 for the other cells were seeded in 96-multi-well plates in triplicate and left for 24 h for attachment, spreading and growing. Then, cells were exposed for 48 h to increasing concentrations of chemicals, ranging from 0.1 μM to 25 μM, in a final volume of 120 μL of culture medium. After 48 h of treatment, cells were washed in PBS and fixed in a cooled 90% ethanol/5% acetic acid solution for 20 min. The nuclei were stained with Hoechst 3342 (B2261 Merck Sigma-Aldrich) and counted. Image acquisition and analysis were performed using automated imaging analysis with a Cellomics Arrayscan VTI/HCS Reader (Thermo/Scientific, Waltham, MA, USA). The survival percentages were calculated as the percentage of cell number after chemical treatment over cell number after DMSO treatment. The IC50 was graphically determined.

Fibroblasts = experiment: Antiproliferative assay, diploid skin fibroblasts (normal cells); format: cell-based; conditions: Fibroblast; 48 h incubation; average of three assays, standard error ± 0.5 μM
Protocol: as §1, §2, §3, §4

PC3 = experiment: Antiproliferative assay, PC3; format: cell-based, human; conditions: for IC50: Homo sapiens, PC-3, 48 h incubation, average of three assays, standard error ± 0.5 μM
Protocol: as §1, §2, §3, §4

HCT 116 = experiment: Antiproliferative assay, HCT 116; format: cell-based, human; conditions: for IC50: Homo sapiens, HCT-116, 48 h incubation, average of three assays, standard error ± 0.5 μM; for Selectivity Index (SI) HCT 116: SI = IC50 fibroblasts/IC50 on HCT 116
Protocol: as §1, §2, §3, §4

Huh7 D12 = experiment: Antiproliferative assay, Huh7 D12; format: cell-based, human; conditions: for IC50: Homo sapiens, Huh-7D12, 48 h incubation, average of three assays, standard error ± 0.5 μM
Protocol: as §1, §2, §3, §4

Caco2 = experiment: Antiproliferative assay, Caco2; format: cell-based, human; conditions: Homo sapiens, Caco-2; 48 h incubation; average of three assays, standard error ± 0.5 μM
Protocol: as §1, §2, §3, §4

[4] = Antiproliferative assay, Caco2; format: cell-based, human; conditions: human, Caco-2; SI = IC50 fibroblasts/IC50 on Caco2; read-out: Selectivity Index (SI) Caco2
Protocol: as §1, §2, §3, §4

MDA MB231 = experiment: Antiproliferative assay, MDA MB231; format: cell-based, human; conditions: for IC50: Homo sapiens, MDA-MB-231, 48 h incubation, average of three assays, standard error ± 0.5 μM
Protocol: as §1, §2, §3, §4

MDA MB468 = experiment: Antiproliferative assay, MDA MB468; format: cell-based, human; conditions: for IC50: Homo sapiens, MDA-MB-468, 48 h incubation, average of three assays, standard error ± 0.5 μM
Protocol: as §1, §2, §3, §4

tumor cell lines = experiment: Antiproliferative assay, panel of tumoral cell lines; format: cell-based; conditions: Homo sapiens, 48 h, summary over tumoral cell lines of Table 3, 48 h; read-out: IC50 on tumor cell lines (span over the panel)
Protocol: as §1, §2, §3, §4

PANC1 = experiment: Antiproliferative assay, PANC1; format: cell-based, human; conditions: Homo sapiens, PANC-1; 48 h incubation; average of three assays, standard error ± 0.5 μM
Protocol: as §1, §2, §3, §4

Molecule | IC50 (MCF7) [µM] | IC50 (PC3) [µM] | IC50 (HCT 116) [µM] | IC50 (Huh7 D12) [µM] | melting point [°C] | IC50 (Caco2) [µM] | IC50 (tumor cell lines) [µM] | IC50 (Fibroblasts) [µM] | Selectivity Index (SI) HCT 116 (HCT 116) | IC50 (MDA MB231) [µM] | IC50 (MDA MB468) [µM] | other results
CNC(=O)c1cc(Oc2ccc(NC(=O)Nc3ccc(Cl)c(C(F)(F)F)c3)cc2)ccn1 [sorafenib, reference compound] | – | – | – | – | – | – | – | – | – | – | – | effect on angiogenesis of the vessels [1]: absence of angiogenesis of the vessels; effect on angiogenesis of the vessels ([1]; listed as Sorafenib): inhibition of the dorsal vessel vascularization; toxicity, fraction of the embryos [2]: 4/5; development of the embryos ([3]; 24 hpf): normal development; morphological development of the embryos ([3]; 48 hpf): morphological development is delayed
2-amino-4-(3-bromo-4,5-dimethoxyphenyl)-4H-chromene-3-carbonitrile [MX 58151] | – | – | – | – | – | – | – | – | – | – | – | GI50 (T47D breast cancer cells): 0.037 µM
N=c1c2c(ncn1/N=C/c1ccccc1)Oc1ccccc1C2 [10f, (3E) 3-N-(Phenylmethylidene)amino-4-imino-3,5-dihydro-4H-chromeno[2,3-d]pyrimidine] | > 25 | > 25 | 10 | > 25 | 232 to 234 | > 25 | > 25 | > 25 | > 2.5 | > 25 | > 25 | IC50 (PANC1): > 25 µM

Continued, in another order:

IC50 (MCF7) [µM] | IC50 (PC3) [µM] | IC50 (HCT 116) [µM] | IC50 (Huh7 D12) [µM] | melting point [°C] | IC50 (Caco2) [µM] | IC50 (tumor cell lines) [µM] | Molecule | IC50 (Fibroblasts) [µM] | Selectivity Index (SI) HCT 116 (HCT 116) | IC50 (MDA MB231) [µM] | IC50 (MDA MB468) [µM] | other results
0.45 | 0.77 | 0.62 | 0.49 | 252 to 254 | 0.8 | – | COc1cccc2c1Oc1ncn(/N=C/c3ccccc3)c(=N)c1C2 [10i, (3E) 3-N-(Phenylmethylidene)amino-4-imino-9-methoxy-3,5-dihydro-4H-chromeno[2,3-d]pyrimidine] | > 25 | > 40.3 | 0.6 | 0.3 | Selectivity Index (SI) MCF7 (MCF7; SI = IC50 fibroblasts/IC50 on MCF7): > 55.6; Selectivity Index (SI) PC3 (PC3; SI = IC50 fibroblasts/IC50 on PC3): > 32.5; Selectivity Index (SI) Huh7 D12 (Huh7 D12; SI = IC50 fibroblasts/IC50 on Huh7 D12): > 51.0; selectivity ratio at 48 h [4]: > 31.3; Selectivity Index (SI) MDA MB231 (MDA MB231; SI = IC50 fibroblasts/IC50 on MDA MB231): > 41.7; Selectivity Index (SI) MDA MB468 (MDA MB468; SI = IC50 fibroblasts/IC50 on MDA MB468): > 83.3
> 25 | > 25 | > 25 | > 25 | ≥ 260 | > 25 | > 25 | N=c1c2c(ncn1/N=C/c1ccccc1)Oc1ccc3ccccc3c1C2 [10l, (10E) 10-N-(Phenylmethylidene)amino-11-imino-11H-naphto[1′,2′:5,6]pyrano[2,3-d]pyrimidine] | > 25 | – | > 25 | > 25 | –
